Our source for the pIC50 values is the supplement of paper PMC12076712.

Molecules are shown by their SMILES.

What all share (test): pIC50, kinobeads binding competition
One assay concerns the target BUB1 (UniProt O43683). The procedure, abridged:
(§1)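 Fold changes relative to vehicle, from biological duplicates, were fitted with logistic dose-response models in the R drc package to give pIC50. These fold changes came from TMT10 LC-MS/MS quantification of digested Kinobeads-bound proteins. Compound was applied at nine concentrations (top 30 μM) either to live Jurkat cells in 1:4 steps for 60 min at 37 °C before lysis, or to Jurkat lysate or a 1:1:1:1 HEK293/K-562/HepG2/placenta lysate mix in 1:5 steps for 60 min at 4 °C.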

The target in a further assay is T1, EPHB1 (UniProt P54762).
T1 sequence (whole entry): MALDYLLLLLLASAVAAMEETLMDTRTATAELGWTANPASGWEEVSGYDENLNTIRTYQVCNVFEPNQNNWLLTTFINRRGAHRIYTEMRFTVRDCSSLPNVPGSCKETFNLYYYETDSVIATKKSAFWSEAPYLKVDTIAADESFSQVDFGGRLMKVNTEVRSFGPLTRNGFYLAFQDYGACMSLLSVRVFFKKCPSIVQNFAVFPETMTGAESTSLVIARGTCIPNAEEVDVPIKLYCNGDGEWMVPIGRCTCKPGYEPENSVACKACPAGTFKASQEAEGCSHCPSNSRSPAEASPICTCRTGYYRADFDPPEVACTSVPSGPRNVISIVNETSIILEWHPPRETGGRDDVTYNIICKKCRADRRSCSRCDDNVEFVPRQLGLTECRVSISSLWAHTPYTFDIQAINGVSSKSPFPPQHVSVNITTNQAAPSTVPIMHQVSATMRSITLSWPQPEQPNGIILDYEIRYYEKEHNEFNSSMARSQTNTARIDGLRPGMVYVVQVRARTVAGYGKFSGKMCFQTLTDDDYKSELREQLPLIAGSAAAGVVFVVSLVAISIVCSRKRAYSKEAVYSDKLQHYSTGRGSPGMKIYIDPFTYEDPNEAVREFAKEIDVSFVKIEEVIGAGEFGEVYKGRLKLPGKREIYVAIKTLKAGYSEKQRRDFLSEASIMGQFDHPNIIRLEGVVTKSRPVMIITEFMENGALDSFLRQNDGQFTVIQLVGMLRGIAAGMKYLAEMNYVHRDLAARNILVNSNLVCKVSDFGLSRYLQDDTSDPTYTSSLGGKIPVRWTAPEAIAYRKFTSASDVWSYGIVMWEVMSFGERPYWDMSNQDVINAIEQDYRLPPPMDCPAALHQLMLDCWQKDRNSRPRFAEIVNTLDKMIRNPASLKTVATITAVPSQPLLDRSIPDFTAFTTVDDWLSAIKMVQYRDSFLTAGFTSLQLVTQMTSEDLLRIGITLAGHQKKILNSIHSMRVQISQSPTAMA
The conditions noted are these: cell material: Lysate mix. The procedure, abridged:
as §1

The next assay deals with T2, EPHB2 (UniProt P29323).
T2 sequence (whole entry): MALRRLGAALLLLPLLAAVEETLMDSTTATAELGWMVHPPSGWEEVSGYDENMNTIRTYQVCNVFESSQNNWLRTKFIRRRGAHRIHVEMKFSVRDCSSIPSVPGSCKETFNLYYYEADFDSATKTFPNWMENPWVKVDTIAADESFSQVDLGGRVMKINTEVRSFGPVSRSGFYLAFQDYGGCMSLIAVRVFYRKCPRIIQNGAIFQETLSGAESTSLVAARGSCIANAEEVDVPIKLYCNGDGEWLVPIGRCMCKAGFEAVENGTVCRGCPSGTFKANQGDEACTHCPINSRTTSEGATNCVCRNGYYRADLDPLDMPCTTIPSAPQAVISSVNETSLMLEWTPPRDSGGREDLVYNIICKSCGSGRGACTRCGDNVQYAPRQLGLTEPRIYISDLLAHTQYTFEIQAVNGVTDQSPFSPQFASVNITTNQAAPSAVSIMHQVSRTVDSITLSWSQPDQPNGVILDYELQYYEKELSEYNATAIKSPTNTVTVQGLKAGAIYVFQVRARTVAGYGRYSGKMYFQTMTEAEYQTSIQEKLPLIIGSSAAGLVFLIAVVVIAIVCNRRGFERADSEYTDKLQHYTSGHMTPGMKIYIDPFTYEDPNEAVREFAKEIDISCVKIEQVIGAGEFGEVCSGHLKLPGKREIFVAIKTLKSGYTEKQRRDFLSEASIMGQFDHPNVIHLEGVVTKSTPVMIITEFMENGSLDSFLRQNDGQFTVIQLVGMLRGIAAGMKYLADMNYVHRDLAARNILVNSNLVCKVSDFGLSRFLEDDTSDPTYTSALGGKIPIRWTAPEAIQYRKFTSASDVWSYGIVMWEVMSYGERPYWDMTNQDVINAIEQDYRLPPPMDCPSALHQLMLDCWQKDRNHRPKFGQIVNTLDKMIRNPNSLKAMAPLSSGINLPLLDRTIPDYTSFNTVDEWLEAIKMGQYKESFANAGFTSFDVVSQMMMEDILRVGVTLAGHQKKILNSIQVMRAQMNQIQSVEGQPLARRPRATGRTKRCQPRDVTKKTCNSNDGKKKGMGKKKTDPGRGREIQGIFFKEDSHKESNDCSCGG
The method, boiled down:
as §1

The next assay concerns the target RIPK2 (UniProt O43353). The settings on record: cell material: Lysate mix. The procedure, abridged: as §1
A further assay concerns the target ROCK2 (UniProt O75116). The method, boiled down:
as §1

For the next assay, the target named is SLK (UniProt Q9H2G2). The procedure, abridged: as §1
The next assay has as its target STK39 (UniProt Q9UEW8). The method, boiled down:
as §1

In the next assay the target is SYK (UniProt P43405). The procedure, abridged: as §1
For another assay, the target named is UniProt P17252. The procedure, abridged:
as §1

The target in a further assay is UniProt P28482. The method, boiled down: as §1
Chain of UniProt P28482 (P28482 whole entry): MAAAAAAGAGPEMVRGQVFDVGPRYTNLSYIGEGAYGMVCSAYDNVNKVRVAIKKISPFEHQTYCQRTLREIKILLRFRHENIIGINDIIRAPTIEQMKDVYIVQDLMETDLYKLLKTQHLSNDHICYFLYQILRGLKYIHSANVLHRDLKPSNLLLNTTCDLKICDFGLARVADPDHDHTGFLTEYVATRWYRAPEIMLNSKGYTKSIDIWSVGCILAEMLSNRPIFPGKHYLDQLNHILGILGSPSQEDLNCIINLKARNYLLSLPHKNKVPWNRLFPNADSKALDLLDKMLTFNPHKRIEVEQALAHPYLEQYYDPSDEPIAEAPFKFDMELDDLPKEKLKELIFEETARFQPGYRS
A further assay deals with UniProt P50613. The method, boiled down: as §1
Chain of UniProt P50613 (P50613 whole entry): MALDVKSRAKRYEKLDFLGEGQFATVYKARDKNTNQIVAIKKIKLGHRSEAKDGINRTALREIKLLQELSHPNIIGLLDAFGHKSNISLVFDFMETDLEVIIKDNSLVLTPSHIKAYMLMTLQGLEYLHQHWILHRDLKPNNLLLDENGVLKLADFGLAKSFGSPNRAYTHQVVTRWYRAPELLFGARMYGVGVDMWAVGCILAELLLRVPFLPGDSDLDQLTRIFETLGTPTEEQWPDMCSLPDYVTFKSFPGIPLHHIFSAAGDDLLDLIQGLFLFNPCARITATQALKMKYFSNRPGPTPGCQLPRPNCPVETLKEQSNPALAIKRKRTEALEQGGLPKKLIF
In the next assay the target is UniProt Q13164. The procedure, abridged:
as §1

The target in the next assay is UniProt Q15418. The procedure, abridged:
as §1

For the next assay, the target named is UniProt Q16513. The method, boiled down:
as §1

In a further assay the target is UniProt Q9BUB5. The procedure, abridged:
as §1

For a further assay, the target named is WEE1 (UniProt P30291). The procedure, abridged: as §1
Chain of WEE1 (P30291 whole entry, looked up): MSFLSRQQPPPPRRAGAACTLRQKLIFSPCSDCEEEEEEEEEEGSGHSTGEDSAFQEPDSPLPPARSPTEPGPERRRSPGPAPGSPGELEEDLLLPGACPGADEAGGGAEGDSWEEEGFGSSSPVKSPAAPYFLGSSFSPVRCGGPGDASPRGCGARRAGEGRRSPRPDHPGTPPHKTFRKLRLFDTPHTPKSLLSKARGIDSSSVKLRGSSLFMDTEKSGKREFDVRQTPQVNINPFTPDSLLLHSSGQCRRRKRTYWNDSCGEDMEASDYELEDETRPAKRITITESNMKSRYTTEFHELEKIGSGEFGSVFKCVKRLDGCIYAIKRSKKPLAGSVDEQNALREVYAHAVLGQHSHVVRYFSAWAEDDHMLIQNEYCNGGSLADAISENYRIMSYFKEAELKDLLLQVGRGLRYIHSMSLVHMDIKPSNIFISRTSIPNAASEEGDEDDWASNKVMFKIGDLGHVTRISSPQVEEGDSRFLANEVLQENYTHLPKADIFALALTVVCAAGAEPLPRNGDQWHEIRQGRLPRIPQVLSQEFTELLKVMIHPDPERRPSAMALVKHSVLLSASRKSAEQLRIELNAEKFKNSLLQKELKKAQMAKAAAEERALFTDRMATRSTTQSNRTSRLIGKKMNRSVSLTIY

Chain of UniProt Q9BUB5 (Q9BUB5 whole entry, looked up): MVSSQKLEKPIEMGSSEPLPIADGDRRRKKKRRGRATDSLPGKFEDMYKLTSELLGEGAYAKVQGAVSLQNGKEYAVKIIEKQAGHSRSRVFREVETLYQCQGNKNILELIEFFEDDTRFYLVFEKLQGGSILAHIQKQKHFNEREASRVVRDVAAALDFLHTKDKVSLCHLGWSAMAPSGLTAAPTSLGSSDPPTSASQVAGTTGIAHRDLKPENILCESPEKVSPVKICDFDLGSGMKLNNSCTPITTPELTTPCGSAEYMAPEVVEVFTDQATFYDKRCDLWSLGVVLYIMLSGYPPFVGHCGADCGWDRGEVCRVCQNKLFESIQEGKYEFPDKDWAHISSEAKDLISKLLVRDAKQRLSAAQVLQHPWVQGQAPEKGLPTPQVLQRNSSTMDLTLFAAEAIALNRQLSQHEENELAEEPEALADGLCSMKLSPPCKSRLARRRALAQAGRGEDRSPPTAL
Chain of BUB1 (O43683 whole entry, looked up): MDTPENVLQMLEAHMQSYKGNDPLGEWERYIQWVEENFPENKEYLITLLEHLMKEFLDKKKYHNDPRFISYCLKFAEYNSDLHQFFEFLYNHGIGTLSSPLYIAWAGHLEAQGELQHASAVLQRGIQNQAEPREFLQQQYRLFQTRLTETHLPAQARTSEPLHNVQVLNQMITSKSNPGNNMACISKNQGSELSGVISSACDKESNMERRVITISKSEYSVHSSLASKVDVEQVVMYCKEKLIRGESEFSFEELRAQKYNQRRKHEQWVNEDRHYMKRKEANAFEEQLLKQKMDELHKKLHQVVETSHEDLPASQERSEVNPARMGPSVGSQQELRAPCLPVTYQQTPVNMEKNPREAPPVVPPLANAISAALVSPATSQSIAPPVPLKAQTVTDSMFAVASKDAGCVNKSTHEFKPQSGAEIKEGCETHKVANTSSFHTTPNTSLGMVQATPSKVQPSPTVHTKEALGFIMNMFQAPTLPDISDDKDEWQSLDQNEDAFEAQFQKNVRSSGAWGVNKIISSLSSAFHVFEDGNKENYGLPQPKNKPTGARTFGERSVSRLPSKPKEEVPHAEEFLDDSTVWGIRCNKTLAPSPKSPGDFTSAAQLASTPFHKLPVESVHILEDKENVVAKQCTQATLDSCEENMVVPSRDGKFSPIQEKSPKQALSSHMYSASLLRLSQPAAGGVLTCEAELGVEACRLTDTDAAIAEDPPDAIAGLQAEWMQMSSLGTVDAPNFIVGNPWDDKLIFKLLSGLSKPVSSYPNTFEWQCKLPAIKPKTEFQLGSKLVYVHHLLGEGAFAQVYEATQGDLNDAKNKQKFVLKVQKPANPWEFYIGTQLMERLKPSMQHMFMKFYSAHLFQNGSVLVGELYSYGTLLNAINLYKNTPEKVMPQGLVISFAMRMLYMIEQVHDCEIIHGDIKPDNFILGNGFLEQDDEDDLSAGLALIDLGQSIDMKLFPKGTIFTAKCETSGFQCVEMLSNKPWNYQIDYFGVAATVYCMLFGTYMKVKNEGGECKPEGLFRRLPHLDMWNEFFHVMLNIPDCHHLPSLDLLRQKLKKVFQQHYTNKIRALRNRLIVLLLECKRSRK
Chain of ROCK2 (O75116 whole entry, looked up): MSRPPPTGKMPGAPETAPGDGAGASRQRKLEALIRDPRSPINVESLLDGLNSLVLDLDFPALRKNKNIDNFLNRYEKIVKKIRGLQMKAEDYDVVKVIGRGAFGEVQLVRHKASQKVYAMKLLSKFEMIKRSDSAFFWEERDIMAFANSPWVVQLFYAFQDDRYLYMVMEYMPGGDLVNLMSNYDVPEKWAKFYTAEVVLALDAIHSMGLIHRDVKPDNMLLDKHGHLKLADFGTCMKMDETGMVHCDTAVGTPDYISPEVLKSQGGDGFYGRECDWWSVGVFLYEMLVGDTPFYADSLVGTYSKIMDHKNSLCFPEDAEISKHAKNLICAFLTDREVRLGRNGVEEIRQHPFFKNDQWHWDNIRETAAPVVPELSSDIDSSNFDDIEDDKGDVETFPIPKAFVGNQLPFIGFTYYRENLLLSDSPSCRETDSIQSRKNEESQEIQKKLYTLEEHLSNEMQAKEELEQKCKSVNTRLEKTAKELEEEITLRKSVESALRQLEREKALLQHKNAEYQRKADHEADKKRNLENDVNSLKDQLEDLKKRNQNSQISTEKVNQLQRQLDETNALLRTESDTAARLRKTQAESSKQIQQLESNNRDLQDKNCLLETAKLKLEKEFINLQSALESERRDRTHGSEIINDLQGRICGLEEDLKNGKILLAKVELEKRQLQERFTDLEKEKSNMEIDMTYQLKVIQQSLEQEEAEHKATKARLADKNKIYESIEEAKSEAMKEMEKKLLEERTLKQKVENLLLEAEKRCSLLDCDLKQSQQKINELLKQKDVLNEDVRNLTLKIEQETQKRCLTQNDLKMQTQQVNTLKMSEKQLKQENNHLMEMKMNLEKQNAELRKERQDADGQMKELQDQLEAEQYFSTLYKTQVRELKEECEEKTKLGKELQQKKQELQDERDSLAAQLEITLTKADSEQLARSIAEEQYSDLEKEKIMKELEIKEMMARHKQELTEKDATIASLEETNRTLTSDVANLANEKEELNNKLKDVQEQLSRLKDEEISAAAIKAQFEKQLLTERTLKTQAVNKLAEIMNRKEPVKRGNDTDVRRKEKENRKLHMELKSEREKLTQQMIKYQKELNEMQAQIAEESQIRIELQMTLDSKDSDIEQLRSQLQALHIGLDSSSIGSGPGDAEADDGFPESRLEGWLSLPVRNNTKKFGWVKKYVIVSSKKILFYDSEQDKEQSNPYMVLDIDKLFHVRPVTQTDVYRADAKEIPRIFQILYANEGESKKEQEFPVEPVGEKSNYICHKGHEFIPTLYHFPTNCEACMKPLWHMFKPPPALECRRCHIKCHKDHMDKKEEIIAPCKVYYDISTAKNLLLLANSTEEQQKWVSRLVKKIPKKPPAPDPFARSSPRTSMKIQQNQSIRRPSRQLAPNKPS

What is called pIC50 is −log10 of the IC50, conventionally taken in molar units. A lower pIC50 goes with a large IC50. `C#CCNC(=O)c1cc(Nc2cc(C)[nH]n2)nc(N2CCN(Cc3ccc(S(=O)(=O)F)cc3)CC2)n1`: the negative-log IC50 (pIC50) on BUB1 (cell material: Lysate mix), at EPHB1, on EPHB2 (cell material: Lysate mix), at RIPK2, at ROCK2 (cell material: Lysate mix) and at SLK (cell material: Lysate mix) was less than 4.52 in each case. For the same compound, the pIC50 at STK39 (cell material: Lysate mix) is 5.73; on SYK (cell material: Lysate mix) it was 5.52; on UniProt P17252 (cell material: Lysate mix), less than 4.52; at UniProt P28482 (cell material: Lysate mix) it was less than 4.52; at UniProt P50613 (cell material: Lysate mix), 5.14; on UniProt Q13164 (cell material: Lysate mix), less than 4.52. Besides, the pIC50 at UniProt Q15418 (cell material: Lysate mix) is 5.27; on UniProt Q16513 (cell material: Lysate mix), less than 4.52; at UniProt Q9BUB5 (cell material: Lysate mix) it was less than 4.52; at WEE1 (cell material: Lysate mix), less than 4.52.
For the compound `O=C(NCCNC(=O)c1cc(Nc2cc(C3CC3)[nH]n2)nc(N2CCN(Cc3ccc(S(=O)(=O)F)cc3)CC2)n1)OC1CC/C=C/CCC1` (stereo not drawn), the pIC50 at BUB1 (cell material: Jurkat cells), on BUB1 (cell material: Jurkat lysate), on BUB1 (cell material: Lysate mix), at EPHB1, on EPHB2 (cell material: Jurkat cells) and on EPHB2 (cell material: Jurkat lysate) was less than 4.52 throughout. The negative logarithm of the IC50 (pIC50) at EPHB2 (cell material: Lysate mix), at RIPK2, on ROCK2 (cell material: Jurkat cells), on ROCK2 (cell material: Lysate mix), on SLK (cell material: Jurkat cells) and on SLK (cell material: Jurkat lysate) was less than 4.52 in each case. Further, the pIC50 is less than 4.52 on SLK (cell material: Lysate mix); 5.62 on STK39 (cell material: Jurkat cells); less than 4.52 at STK39 (cell material: Jurkat lysate); 5.38 on SYK (cell material: Jurkat cells); less than 4.52 on SYK (cell material: Jurkat lysate); less than 4.52 on SYK (cell material: Lysate mix). Moreover, the pIC50 was less than 4.52 on UniProt P17252 (cell material: Jurkat lysate); less than 4.52 at UniProt P17252 (cell material: Lysate mix); less than 4.52 on UniProt P28482 (cell material: Jurkat cells); less than 4.52 on UniProt P28482 (cell material: Jurkat lysate); less than 4.52 at UniProt P28482 (cell material: Lysate mix); 6.12 on UniProt P50613 (cell material: Jurkat cells). Moreover, the pIC50 is 4.7 at UniProt P50613 (cell material: Jurkat lysate); 4.92 at UniProt Q13164 (cell material: Jurkat cells); less than 4.52 on UniProt Q13164 (cell material: Jurkat lysate); less than 4.52 on UniProt Q13164 (cell material: Lysate mix); 5.78 at UniProt Q15418 (cell material: Jurkat cells); less than 4.52 at UniProt Q15418 (cell material: Jurkat lysate). Further, the negative logarithm of the IC50 (pIC50) on UniProt Q16513 (cell material: Jurkat lysate), at UniProt Q16513 (cell material: Lysate mix), at UniProt Q9BUB5 (cell material: Jurkat lysate), on UniProt Q9BUB5 (cell material: Lysate mix), on WEE1 (cell material: Jurkat lysate) and on WEE1 (cell material: Lysate mix) was less than 4.52 throughout.
As for `CCNC(=O)c1cc(Nc2cc(C3CC3)[nH]n2)nc(N2CCN(Cc3ccc(S(=O)(=O)F)cc3)CC2)n1`, the pIC50 on BUB1 (cell material: Lysate mix), on EPHB1, on EPHB2 (cell material: Lysate mix), at RIPK2, at ROCK2 (cell material: Lysate mix) and on SLK (cell material: Lysate mix) was less than 4.52 in each case. For the same compound, the negative logarithm of the IC50 (pIC50) on STK39 (cell material: Lysate mix) was 5.65; at SYK (cell material: Lysate mix) it was 6.22; at UniProt P17252 (cell material: Lysate mix) it was 5.11; on UniProt P28482 (cell material: Lysate mix) it was less than 4.52; on UniProt P50613 (cell material: Lysate mix), 6.33; at UniProt Q13164 (cell material: Lysate mix) it was 5.16. Also, the negative-log IC50 (pIC50) at UniProt Q15418 (cell material: Lysate mix) was 5.37; on UniProt Q16513 (cell material: Lysate mix), less than 4.52; on UniProt Q9BUB5 (cell material: Lysate mix), less than 4.52; at WEE1 (cell material: Lysate mix) it was less than 4.52.
